From patent publication US5968920A, “Compounds having a benzisoselen-azoline and -azine structure, method for preparing same and therapeutic uses thereof” (Oxis Isle of Man, Limited, priority 1994, dated 1999)

Tests used:
[1] = tested on: endothelial cells; assay: Protection of endothelial cells against hydrogen peroxide (NO production after bradykinin); assay type: cell-based; conditions: Homo sapiens, Endothelial cell; compound 1 μM; hydrogen peroxide 100 μM; bradykinin 100 nM; read-out: recovery of the normal response to bradykinin (NO production)
Experimental: (§1) Human endothelial cells were cultivated at 37° C. in 6-hole plates or Petri dishes (35 mm diameter) in an atmosphere of saturated humidity constituted by a gaseous mixture of 95% air and 5% of CO2. The culture medium was constituted by a M 199 medium, pH=7.4, containing 20% of foetal calf serum, 2 mM of L-glutamine, 100 U/ml of penicillin and 100 μg/ml of streptomycin.
When the cells were confluent, they were incubated in the presence or absence (control) of a compound with general structure I in culture medium at a concentration of between 1 and 10 μM, all other conditions being the same. After washing the cells three successive times with a PBS buffer, they were incubated in the presence or absence (control) of hydrogen peroxide, 500 or 100 μM, in the reaction medium. The cells were then washed three times with PBS buffer. They were then stained using the May-Grunwald/Giemsa procedure which caused the nucleus to stain purple and the cytoplasm, light violet, or they were used to measure their ability to produce nitric oxide NO. (EDRF). The production of NO. by endothelial cells was made using a NO. electrode, after stimulation with bradykinin, 100 nM, using the procedure described by H. Tsukahara et al., (Biochem. and Biophys. Res. Comm., (1993), 193, pp 722-729).
Treatment with 100 μM hydrogen peroxide had no significant effect on cellular density. […]

[2] = tested on: endothelial cells; assay: Absence of toxicity in a culture of endothelial cells in vitro (MTT); assay type: cell-based, human; conditions: no more than 10 μM, 24 or 48 hours
Experimental: Human endothelial cells were cultivated under the same conditions as those described for Example 18, in 96-hole plates.
When the cells were near confluence, they were incubated or not (control) for 24 or 48 hours in the presence of BXT-51056 or BXT-51072 incorporated into the culture medium at a concentration of no more than 10 μM. After 24 or 48 hours, the cells were rinsed three times with a PBS buffer and the viability of the cells was measured using the bromide of 3-(4,5-dimethylthiazol-2-yl)-2,5-diphenyl-2H-tetrazolium (MTT).

[3] = Glutathione peroxidase activity, t-BuOOH as hydroperoxide; assay type: biochemical; conditions: compound 20 μM, pH = 7.3, 37° C., [GSH] = 2 mM
Experimental: (§2) To 1.5 ml of HEPES buffer, 50 mM, pH=7.3, containing 0.2 mM of DTPA, 0.144 mM of NADPH, 2.2 mM of reduced glutathione and 1.1 U/ml of glutathione disulfide reductase, pre-equilibrated for 2 minutes at 37° C., 100 μl of an ethanolic mother solution of the compound to be tested or 100 μl of absolute ethanol (blank) was added. Each compound was tested at a final concentration of 20 μM.
(§3) Subsequently, 50 μl of the following was added:
tertiobutyl hydroperoxide (t-BuOOH), 6.6 mM in ultrapure water;
(§4) or the hydroperoxide of linoleic acid (18:2-OOH) prepared using soya lipoxygenase (see M. O. Funk et al., Lipids, (1976), 11, pp 113-117), 3.3 mM in a water/methanol mixture, 85/15 (V/V). The glutathione peroxidase activity was measured at 37° C. by measuring the reduction in absorbance at 340 nm over 5 minutes. The initial enzymatic rate or activity was proportional to the slope of the plot of absorbance against time.
(§5) They are expressed in nmoles of hydroperoxide reduced per minute.

[4] = prior art, Wendel 1984; Mercurio and Combs 1986; cited from earlier work
[5] = tested on: interleukin 8 (IL-8); assay: Endothelial production of interleukin 8 induced by TNF-α; assay type: cell-based, human; conditions: 4 h
Experimental: (§6) Human endothelial cells were cultivated under the same conditions as those described for Example 18.
When the cells were near confluence, they were incubated for one hour in the presence or absence of the following compounds: BXT-51072, BXT-51077 or ebselen. Each of these compounds was incorporated into culture medium containing 2% of foetal calf serum at 10 μM, all other conditions being the same. […] After four hours of incubation, the interleukin 8 (IL-8) in the culture medium was measured.

[6] = in the presence of excess glutathione GSH; cited from earlier work
[7] = Glutathione peroxidase activity, hydrogen peroxide; assay type: biochemical; conditions: compound 20 μM, pH = 7.3, 37° C., [GSH] = 2 mM
Experimental: as §2, §3
or hydrogen peroxide (H2 O2), 1.6 mM in ultrapure water;
as §4, §5

[8] = Glutathione peroxidase activity, linoleic acid hydroperoxide; assay type: biochemical; conditions: compound 20 μM, pH = 7.3, 37° C., [GSH] = 2 mM
Experimental: as §2, §3, §4, §5

[9] = tested on: endothelial cells; assay: Adhesion of PMN to endothelial cells induced by TNF-α (myeloperoxidase); assay type: cell-based, human; conditions: compound 10 μM vs pentoxifylline 50 μM; TNF-α 1 ng/ml
Experimental: as §6
(§7) When the cells were near confluence, they were incubated for one hour in the presence or absence of the following compounds: BXT-51072, BXT-51077 or pentoxifylline. Compounds BXT-51072 and BXT-51077, each at 10 μM, and the pentoxifylline, at 50 μM, were incorporated in culture medium containing 2% of foetal calf serum, all other conditions being the same. […] Myeloperoxidase (MPO), an enzyme specifically contained in PMNs, was then measured in the cell lysates obtained to evaluate adhesion of the PMNs on the endothelial cells. The von Willebrandt factor (vWf) liberated in the culture medium by the endothelial cells was measured after three and a half hours of incubation, as a label of the changes in the cells.
(§8) Incubation of the endothelial cells in the presence of PMN and TNF-α led to a very significant increase in the quantity of MPO and vWf with respect to the respective controls (PMN alone, and endothelial cells alone respectively), meaning the adhesion of activated PMNs to the endothelial cells and changes in the latter.
(§9) They are expressed as the percentage inhibition by referring the MPO and vWf measurements to the respective concentrations of MPO and vWf determined when the endothelial cells were incubated with TNF-α and PMNs.

[10] = tested on: von Willebrandt factor (vWf); assay: Protection of endothelial cells against interleukin 1 (von Willebrandt factor release); assay type: cell-based; conditions: Homo sapiens, Endothelial cell, 4 h, read-out: inhibition of increase in vWf liberation induced by IL-1
Experimental: as §6
When the cells were near confluence, they were incubated for one hour in the presence or absence of the following compounds: BXT-51072, BXT-51077, each of these compounds being at 10 μM in culture medium containing 2% of foetal calf serum , all other conditions being the same. The cells were then washed three times with a PBS buffer. The cells which had not been pretreated by a compound were incubated in the presence or absence (control) of interleukin 1α (IL-1α), at 50 U/ml, in the same culture medium. […] After four hours of incubation, the von Willebrandt factor (vWf) in the culture medium was measured.

[11] = tested on: endothelial cells; assay: Endothelial changes induced by PMN and TNF-α (von Willebrandt factor release); assay type: cell-based, human; conditions: BXT compounds 10 μM, pentoxifylline 50 μM; TNF-α 1 ng/ml; 3.5 h
Experimental: as §6, §7, §8, §9

[12] = tested on: endothelial cells; assay: Viability of endothelial cells subjected to linoleic acid hydroperoxide (MTT); assay type: cell-based, human; conditions: compound 4 μM, 1 h; 18:2-OOH 50 μM, 2 h; MTT after about twenty hours
Experimental: as §1, with “multi-hole” for “6-hole”, “dishes” for “dishes (35 mm diameter)”, “penicillin,” for “penicillin and”, “streptomycin and 1% by volume of a medium supplement containing heparin and a cell growth factor.” for “streptomycin.”
When the cells were near confluence, they were incubated for one hour in the presence or absence of one of the following compounds: BXT-51056, BXT-51072, BXT-51077, or ebelsen. Each of these compounds was incorporated at 4 μM into culture medium containing 2% of foetal calf serum, all other conditions being the same.
After washing the cells three successive times with a PBS buffer, they were incubated in the presence or absence (control) of linoleic acid hydroperoxide (18:2-OOH), 50 μM, in the culture medium defined above. […] After about twenty hours, the viability of the cells was determined by measurement using the bromide of 3-(4,5-dimethylthiazol-2-yl)-2,5-diphenyl-2H-tetrazolium (MTT).
The results are shown in FIG. 1, expressed as the survival percentage with respect to the control and where the reference is shown by the black rectangle.

CC1(C)N[Se]c2ccccc21 [BXT-51056, 3,3-dimethyl-benzisoselenazoline]
activity at 1 µM [1]: > 80% | toxicity to endothelial cells [2]: not toxic to endothelial cells

CCN1CC(C)(C)c2ccccc2[Se]1 [BXT-51078, 4,4-dimethyl-2-ethyl-benzisoselenazine]
Glutathione peroxidase activity, t--BuOOH [3]: 16.5 nmoles of hydroperoxide reduced/min

O=c1c2ccccc2[se]n1-c1ccccc1 [ebselen, 2-phenyl-3-one-benzisoselenazoline(2H)]
toxic effect [4]: do not appear to have a major toxic effect | inhibition of IL-8 production induced by TNF-α (in words) ([5]; compound 10 μM, TNF-α 0.1, 1 or 10 ng/ml): no inhibiting effect | water solubility of the derivative produced with excess glutathione GSH [6]: only very slightly soluble in water

CC1(C)N[Se]c2ccc([N+](=O)[O-])cc21 [BXT-51075, 3,3'-dimethyl-5-nitro-benzisoselenazoline]
Glutathione peroxidase activity, H2 O2 [7]: 5,9 nmoles of hydroperoxide reduced/min | Glutathione peroxidase activity, t--BuOOH [3]: 3,2 nmoles of hydroperoxide reduced/min

CC1(C)N[Se](=O)c2ccccc21 (centres unmarked) [BXT-51059]
Glutathione peroxidase activity, 18:2-OOH [8]: 0.8 nmoles of hydroperoxide reduced/min | Glutathione peroxidase activity, H2 O2 [7]: 0.1 nmoles of hydroperoxide reduced/min | Glutathione peroxidase activity, t--BuOOH [3]: 0.2 nmoles of hydroperoxide reduced/min

COc1ccc2c(c1)C(C)(C)CN[Se]2 [BXT-51077, 4,4-dimethyl-6-methoxy-benzisoselenazine]
inhibition of the adhesion of PMN induced by TNF-α (MPO) [9]: inhibit the adhesion of PMN induced by TNF-α, much more effectively than pentoxifylline | inhibition at 10 µM [10]: > 70% | inhibition at 10 µM ([5]; Homo sapiens, read-out: inhibition of IL-8 production induced by TNF-α): ≥ 70% | protection of endothelial cells against the deleterious effects of activated PMNs (vWf) [11]: protect endothelial cells against the deleterious effects of activated PMNs | protection of the cells from death induced by 18:2-OOH [12]: significantly protected the cells from death | Glutathione peroxidase activity, t--BuOOH [3]: 35.4 nmoles of hydroperoxide reduced/min
